Data: PubChem BioAssay AID256 (DTP/NCI, 2004)
“And” between values parts separate entries of the source, which are not always exact repeats. Identical values can stand only once. Toxic doses and inconclusive results are not listed. How the source made its calls: active means survival T/C of 150% or more; inactive means T/C below 125% in these data.

System: CD2F1 mice, L1210 leukemia ip, survival T/C
Experiment: NCI In Vivo Anticancer Drug Screen. Data for tumor model L1210 Leukemia (intraperitoneal) in CD2F1 (CDF1) mice
Conditions: higher = longer survival
Method in brief: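 Ratio T/C, where T is the treated-group value and C the vehicle-dosed control value, from mice implanted with a transplantable tumor.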

[1] = endpoint: mean survival time, dose: 100.0 mg/kg/injection, schedule: Q01DX001 (ip), vehicle: saline with Tween-80
[2] = endpoint: mean survival time, dose: 200.0 mg/kg/injection, schedule: Q01DX001 (ip), vehicle: saline with Tween-80
[3] = endpoint: mean survival time, dose: 25.0 mg/kg/injection, schedule: Q01DX009 (ip), vehicle: saline with Tween-80
[4] = endpoint: mean survival time, dose: 50.0 mg/kg/injection, schedule: Q01DX009 (ip), vehicle: saline with Tween-80
[5] = endpoint: mean survival time, dose: 100.0 mg/kg/injection, schedule: Q01DX009 (ip), vehicle: saline with Tween-80
[6] = endpoint: mean survival time, dose: 100.0 mg/kg/injection, schedule: Q04DX003 (ip), vehicle: saline
[7] = endpoint: mean survival time, dose: 200.0 mg/kg/injection, schedule: Q04DX003 (ip), vehicle: saline
[8] = endpoint: mean survival time, dose: 400.0 mg/kg/injection, schedule: Q04DX003 (ip), vehicle: saline
[9] = endpoint: mean survival time, dose: 25.0 mg/kg/injection, schedule: Q04DX003 (ip), vehicle: saline with Tween-80
[10] = endpoint: mean survival time, dose: 400.0 mg/kg/injection, schedule: Q01DX001 (ip), vehicle: saline with Tween-80
[11] = endpoint: mean survival time, dose: 100.0 mg/kg/injection, schedule: Q04DX002 (ip), vehicle: saline with Tween-80
[12] = endpoint: mean survival time, dose: 200.0 mg/kg/injection, schedule: Q04DX002 (ip), vehicle: saline with Tween-80
[13] = endpoint: mean survival time, dose: 400.0 mg/kg/injection, schedule: Q04DX002 (ip), vehicle: saline with Tween-80
[14] = endpoint: mean survival time, dose: 100.0 mg/kg/injection, schedule: Q01DX009 (ip), vehicle: Klucel (hydroxypropylcellulose) (HPC)
[15] = endpoint: mean survival time, dose: 200.0 mg/kg/injection, schedule: Q01DX009 (ip), vehicle: Klucel (hydroxypropylcellulose) (HPC)

Measured: T/C

COc1cc2c(cc1O)N=C[C@@H]1CCC(O)N1C2=O (mixture of isomers)
inactive: endpoint: mean survival time, dose: 0.5 mg/kg/injection, schedule: Q01DX009 (ip), vehicle: saline 108 % of control | endpoint: mean survival time, dose: 1.0 mg/kg/injection, schedule: Q01DX009 (ip), vehicle: saline 102 % of control and 108 % of control | endpoint: mean survival time, dose: 2.0 mg/kg/injection, schedule: Q01DX009 (ip), vehicle: saline 118 % of control and 111 % of control | endpoint: mean survival time, dose: 4.0 mg/kg/injection, schedule: Q01DX009 (ip), vehicle: saline 113 % of control and 117 % of control | endpoint: mean survival time, dose: 8.0 mg/kg/injection, schedule: Q01DX009 (ip), vehicle: saline 106 % of control and 107 % of control | endpoint: median survival time, dose: 0.1 mg/kg/injection, schedule: Q01DX005 (ip), vehicle: saline 102 % of control | endpoint: median survival time, dose: 0.2 mg/kg/injection, schedule: Q01DX005 (ip), vehicle: saline 102 % of control | endpoint: median survival time, dose: 0.4 mg/kg/injection, schedule: Q01DX005 (ip), vehicle: saline 102 % of control | endpoint: median survival time, dose: 0.8 mg/kg/injection, schedule: Q01DX005 (ip), vehicle: saline 102 % of control | endpoint: median survival time, dose: 1.6 mg/kg/injection, schedule: Q01DX005 (ip), vehicle: saline 107 % of control

O=C(O)CS(=O)c1ccc(Cl)cc1 (configuration not stated)
inactive: endpoint: mean survival time, dose: 50.0 mg/kg/injection, schedule: Q01DX001 (ip), vehicle: saline with Tween-80 104 % of control | [1] 95 % of control | [2] 88 % of control

CCCCCCCCCCCCN1CCCC(O)C1 (configuration not stated)
inactive: [3] 116 % of control | [4] 92 % of control and 105 % of control | [5] 105 % of control and 111 % of control

CC(C(=O)O)C1(O)CCCCC1 (configuration not stated)
inactive: endpoint: mean survival time, dose: 5.0 mg/kg/injection, schedule: Q01DX009 (ip), vehicle: saline with Tween-80 101 % of control | endpoint: mean survival time, dose: 10.0 mg/kg/injection, schedule: Q01DX009 (ip), vehicle: saline with Tween-80 95 % of control | endpoint: mean survival time, dose: 20.0 mg/kg/injection, schedule: Q01DX009 (ip), vehicle: saline with Tween-80 90 % of control

CCC(CC)c1ccccn1
inactive: endpoint: mean survival time, dose: 100.0 mg/kg/injection, schedule: Q01DX009 (ip), vehicle: saline 115 % of control | [6] 99 % of control | endpoint: mean survival time, dose: 200.0 mg/kg/injection, schedule: Q01DX009 (ip), vehicle: saline 120 % of control | [7] 99 % of control | endpoint: mean survival time, dose: 400.0 mg/kg/injection, schedule: Q01DX009 (ip), vehicle: saline 117 % of control | [8] 110 % of control

N/C(=N\Cl)C(Cl)(Cl)Cl
inactive: endpoint: mean survival time, dose: 12.5 mg/kg/injection, schedule: Q01DX009 (ip), vehicle: saline 105 % of control | endpoint: mean survival time, dose: 25.0 mg/kg/injection, schedule: Q01DX009 (ip), vehicle: saline 103 % of control | endpoint: mean survival time, dose: 50.0 mg/kg/injection, schedule: Q01DX009 (ip), vehicle: saline 109 % of control

CC1CC[N+](C)(CC(=O)c2ccc(-c3ccc(C(=O)C[N+]4(C)CCC(C)CC4)cc3)cc2)CC1 (configuration not stated)
inactive: endpoint: mean survival time, dose: 0.02 mg/kg/injection, schedule: Q04DX003 (ip), vehicle: Klucel (hydroxypropylcellulose) (HPC) 96 % of control | endpoint: mean survival time, dose: 0.04 mg/kg/injection, schedule: Q04DX003 (ip), vehicle: Klucel (hydroxypropylcellulose) (HPC) 98 % of control | endpoint: mean survival time, dose: 0.08 mg/kg/injection, schedule: Q04DX003 (ip), vehicle: Klucel (hydroxypropylcellulose) (HPC) 87 % of control and 95 % of control

COC(=O)c1ccccc1N1C(=O)C=CC1=O
inactive: endpoint: mean survival time, dose: 12.5 mg/kg/injection, schedule: Q04DX003 (ip), vehicle: saline with Tween-80 98 % of control | [9] 89 % of control

CC(=O)c1ccc2c([N+](=O)[O-])ccc3c2c1CC3
inactive: [1] 97 % of control | [2] 91 % of control | [10] 94 % of control

CC(=O)N(O)c1ccc2c(c1)Cc1ccccc1-2
inactive: [5] 98 % of control | endpoint: mean survival time, dose: 200.0 mg/kg/injection, schedule: Q01DX009 (ip), vehicle: saline with Tween-80 101 % of control | endpoint: mean survival time, dose: 400.0 mg/kg/injection, schedule: Q01DX009 (ip), vehicle: saline with Tween-80 101 % of control

CCCCCC(Br)C(Br)CC(Br)C(Br)CCCCCCCC(=O)O (configuration not stated)
inactive: endpoint: mean survival time, dose: 100.0 mg/kg/injection, schedule: Q01DX009 (ip), vehicle: acetone 95 % of control | endpoint: mean survival time, dose: 200.0 mg/kg/injection, schedule: Q01DX009 (ip), vehicle: acetone 92 % of control | endpoint: mean survival time, dose: 400.0 mg/kg/injection, schedule: Q01DX009 (ip), vehicle: acetone 90 % of control

Cc1cn(CC(=O)c2cc3ccccc3[nH]2)c(=O)[nH]c1=O
inactive: [11] 93 % of control | [12] 93 % of control | [13] 101 % of control

CCCCN1C(=O)C=CC1=O
inactive: endpoint: mean survival time, dose: 0.78 mg/kg/injection, schedule: Q01DX009 (ip), vehicle: saline with Tween-80 94 % of control | endpoint: mean survival time, dose: 1.56 mg/kg/injection, schedule: Q01DX009 (ip), vehicle: saline with Tween-80 105 % of control | endpoint: mean survival time, dose: 3.12 mg/kg/injection, schedule: Q01DX009 (ip), vehicle: saline with Tween-80 91 % of control

O=C1N(C2CCCCC2)CC2C(c3cccnc3)NNC12O (configuration not stated)
inactive: [1] 97 % of control | [2] 87 % of control

O=C(Nc1cccc(C(F)(F)F)c1)c1cccc(C(=O)Nc2cccc(C(F)(F)F)c2)c1
inactive: endpoint: mean survival time, dose: 12.5 mg/kg/injection, schedule: Q01DX009 (ip), vehicle: saline with Tween-80 92 % of control | [3] 89 % of control | [4] 89 % of control

O=C(O)/C=C\c1ccc(OC(=O)c2ccccc2)cc1
inactive: endpoint: mean survival time, dose: 50.0 mg/kg/injection, schedule: Q01DX009 (ip), vehicle: Klucel (hydroxypropylcellulose) (HPC) 96 % of control | [14] 93 % of control | [15] 93 % of control

O=C(c1ccccc1)C(Br)C(Br)c1ccc([N+](=O)[O-])cc1 (configuration not stated)
inactive: [11] 89 % of control | [12] 101 % of control | [13] 101 % of control

O=C1CC(NCCO)C(=O)NN1 (configuration not stated)
inactive: [6] 101 % of control | [7] 101 % of control | [8] 104 % of control

CCOC(=O)c1ccc(NC(=O)c2ccc(OCCOc3ccc(C(C)(C)CC(C)(C)C)cc3)c(NC(=O)CC(=O)c3cccc([N+](=O)[O-])c3)c2)cc1
inactive: [14] 92 % of control | endpoint: mean survival time, dose: 100.0 mg/kg/injection, schedule: Q04DX003 (ip), vehicle: Klucel (hydroxypropylcellulose) (HPC) 111 % of control | [15] 92 % of control | endpoint: mean survival time, dose: 200.0 mg/kg/injection, schedule: Q04DX003 (ip), vehicle: Klucel (hydroxypropylcellulose) (HPC) 100 % of control | endpoint: mean survival time, dose: 400.0 mg/kg/injection, schedule: Q01DX009 (ip), vehicle: Klucel (hydroxypropylcellulose) (HPC) 103 % of control | endpoint: mean survival time, dose: 400.0 mg/kg/injection, schedule: Q04DX003 (ip), vehicle: Klucel (hydroxypropylcellulose) (HPC) 102 % of control

Cc1nc2c(c(-c3ccccc3)n1)Cc1ccccc1O2
inactive: endpoint: mean survival time, dose: 100.0 mg/kg/injection, schedule: Q01DX001 (ip), vehicle: saline 98 % of control | endpoint: mean survival time, dose: 200.0 mg/kg/injection, schedule: Q01DX001 (ip), vehicle: saline 98 % of control | endpoint: mean survival time, dose: 400.0 mg/kg/injection, schedule: Q01DX001 (ip), vehicle: saline 101 % of control

O=S(=O)(F)c1ccccc1
inactive: [9] 95 % of control | endpoint: mean survival time, dose: 50.0 mg/kg/injection, schedule: Q04DX003 (ip), vehicle: saline with Tween-80 100 % of control | endpoint: mean survival time, dose: 100.0 mg/kg/injection, schedule: Q04DX003 (ip), vehicle: saline with Tween-80 95 % of control and 97 % of control

C/C(=N/Nc1ccccc1)c1cccs1
inactive: [1] 102 % of control | [2] 102 % of control | [10] 94 % of control
